Measured values as given in ChEMBL document CHEMBL1201862, “PubChem BioAssay data set” (2004).
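Where inhibition never reached the appropriate level, the endpoint shown equals the highest concentration tested. Otherwise, values were interpolated linearly from a five-concentration, 48-hour dose response in 96-well plates. Here, GI50 denotes the concentration required for 50% inhibition of growth.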 The source made the active and inactive calls. Rule as the data show it: active = GI50 up to about 1.1 µM and inactive = higher.

Columns and labels:
Assay in all cases: NCI-60 cell line screen, 48 h
UACC-62 = test system: UACC-62
HOP-62 = test system: HOP-62
RPMI-8226 = test system: RPMI-8226
HT-29 = test system: HT-29
U-251 = test system: U-251
EKVX = test system: EKVX
SF-539 = test system: SF-539
HOP-92 = test system: HOP-92
UO-31 = test system: UO-31
SK-MEL-5 = test system: SK-MEL-5
DMS-114 = test system: DMS-114
SN12C = test system: SN12C
SNB-78 = test system: SNB-78
SF-295 = test system: SF-295
Malme-3M = test system: Malme-3M
SNB-75 = test system: SNB-75
HCT-15 = test system: HCT-15
MCF7 = test system: MCF7
NCI-H460 = test system: NCI-H460
OVCAR-3 = test system: OVCAR-3
IGROV-1 = test system: IGROV-1
DLD-1 = test system: DLD-1
SW-620 = test system: SW-620
HCC 2998 = test system: HCC 2998
OVCAR-5 = test system: OVCAR-5
CCRF-CEM = test system: CCRF-CEM
M19-MEL = test system: M19-MEL
HL-60 = test system: HL-60
NCI-H226 = test system: NCI-H226
OVCAR-4 = test system: OVCAR-4
SK-MEL-28 = test system: SK-MEL-28
HCT-116 = test system: HCT-116
NCI-H23 = test system: NCI-H23
HOP-18 = test system: HOP-18
SNB-19 = test system: SNB-19
CAKI-1 = test system: CAKI-1
LOX IMVI = test system: LOX IMVI
KM-20L2 = test system: KM-20L2
KM12 = test system: KM12
NCI/ADR-RES = test system: NCI/ADR-RES
A498 = test system: A498
UACC-257 = test system: UACC-257
NCI-H522 = test system: NCI-H522
COLO 205 = test system: COLO 205
A549 = test system: A549
MOLT-4 = test system: MOLT-4
SK-MEL-2 = test system: SK-MEL-2
SF-268 = test system: SF-268
SK-OV-3 = test system: SK-OV-3
OVCAR-8 = test system: OVCAR-8
RXF 393 = test system: RXF 393
DMS-273 = test system: DMS-273
K562 = test system: K562

CCCC(=O)OCC1OC(n2ccc(N)nc2=O)C(OC(=O)CCC)C1OC(=O)CCC (stereo not drawn)
GI50 (UACC-62): 26.4 µM (inactive) | GI50 (HOP-62): 0.0957 µM (active) | GI50 (RPMI-8226): > 100 µM (inactive) | GI50 (HT-29): 99.3 µM (inactive) | GI50 (U-251): 35 µM (inactive) | GI50 (EKVX): 2.25 µM (inactive) | GI50 (SF-539): 77.3 µM (inactive) | GI50 (HOP-92): > 45.1 µM (inactive) | GI50 (UO-31): 21.6 µM (inactive) | GI50 (SK-MEL-5): > 86.5 µM (inactive) | GI50 (DMS-114): > 100 µM (inactive) | GI50 (SN12C): 16.5 µM (inactive) | GI50 (SNB-78): > 100 µM (inactive) | GI50 (SF-295): > 73.5 µM (inactive) | GI50 (Malme-3M): > 21.2 µM (inactive) | GI50 (SNB-75): > 48.9 µM (inactive) | GI50 (HCT-15): 72.4 µM | GI50 (MCF7): 8.09 µM (inactive) | GI50 (NCI-H460): 2.74 µM (inactive) | GI50 (OVCAR-3): > 100 µM (inactive) | GI50 (IGROV-1): > 63 µM (inactive) | GI50 (DLD-1): > 100 µM (inactive) | GI50 (SW-620): > 100 µM (inactive) | GI50 (HCC 2998): > 100 µM (inactive) | GI50 (OVCAR-5): 15.5 µM (inactive) | GI50 (CCRF-CEM): 0.203 µM (active) | GI50 (M19-MEL): 43.2 µM (inactive) | GI50 (HL-60): 1.67 µM (inactive) | GI50 (NCI-H226): 88.5 µM (inactive) | GI50 (OVCAR-4): > 100 µM (inactive) | GI50 (SK-MEL-28): 15.1 µM (inactive) | GI50 (HCT-116): 33.3 µM (inactive) | GI50 (NCI-H23): 5.01 µM (inactive) | GI50 (HOP-18): 1 µM (active) | GI50 (SNB-19): 24.8 µM (inactive) | GI50 (CAKI-1): 5.25 µM (inactive) | GI50 (LOX IMVI): 3.03 µM (inactive) | GI50 (KM-20L2): 11.4 µM (inactive) | GI50 (KM12): > 100 µM (inactive) | GI50 (NCI/ADR-RES): 68.9 µM (inactive) | GI50 (A498): 5.77 µM (inactive) | GI50 (UACC-257): > 31.7 µM (inactive) | GI50 (NCI-H522): 10.6 µM (inactive) | GI50 (COLO 205): > 100 µM (inactive) | GI50 (A549): 8.05 µM (inactive) | GI50 (MOLT-4): 0.33 µM (active) | GI50 (SK-MEL-2): > 85.9 µM (inactive) | GI50 (SF-268): > 42.4 µM (inactive) | GI50 (SK-OV-3): > 100 µM (inactive) | GI50 (OVCAR-8): 6.1 µM (inactive) | GI50 (RXF 393): > 58.7 µM (inactive) | GI50 (DMS-273): 36.7 µM (inactive) | GI50 (K562): > 100 µM (inactive)

Nc1ccn(C2C=C(CO)C(O)C2O)c(=O)c1 (stereo not drawn)
GI50 (UACC-62): > 625 µM (inactive) | GI50 (HOP-62): > 625 µM (inactive) | GI50 (RPMI-8226): > 625 µM (inactive) | GI50 (HT-29): > 625 µM (inactive) | GI50 (SF-539): > 625 µM (inactive) | GI50 (HOP-92): > 625 µM (inactive) | GI50 (UO-31): > 625 µM (inactive) | GI50 (SK-MEL-5): > 625 µM (inactive) | GI50 (DMS-114): > 625 µM (inactive) | GI50 (SN12C): > 625 µM (inactive) | GI50 (SNB-78): > 625 µM (inactive) | GI50 (SF-295): > 625 µM (inactive) | GI50 (SNB-75): > 625 µM (inactive) | GI50 (HCT-15): > 625 µM | GI50 (MCF7): > 625 µM (inactive) | GI50 (NCI-H460): > 625 µM (inactive) | GI50 (OVCAR-3): > 625 µM (inactive) | GI50 (IGROV-1): > 625 µM (inactive) | GI50 (DLD-1): > 62.5 µM (inactive) | GI50 (SW-620): > 625 µM (inactive) | GI50 (HCC 2998): > 625 µM (inactive) | GI50 (M19-MEL): > 625 µM (inactive) | GI50 (HL-60): > 625 µM (inactive) | GI50 (NCI-H226): > 625 µM (inactive) | GI50 (OVCAR-4): > 625 µM (inactive) | GI50 (HCT-116): > 625 µM (inactive) | GI50 (HOP-18): > 625 µM (inactive) | GI50 (SNB-19): > 625 µM (inactive) | GI50 (CAKI-1): > 625 µM (inactive) | GI50 (LOX IMVI): > 625 µM (inactive) | GI50 (KM-20L2): > 625 µM (inactive) | GI50 (KM12): > 625 µM (inactive) | GI50 (NCI/ADR-RES): > 625 µM (inactive) | GI50 (COLO 205): > 625 µM (inactive) | GI50 (A549): > 625 µM (inactive) | GI50 (SK-MEL-2): > 625 µM (inactive) | GI50 (SF-268): > 625 µM (inactive) | GI50 (SK-OV-3): > 625 µM (inactive) | GI50 (OVCAR-8): > 625 µM (inactive) | GI50 (DMS-273): > 625 µM (inactive)
